Test results taken from PubChem BioAssay (NCI).
“And” between values parts separate entries of the source, which are not always exact repeats. Identical values can stand only once.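 Briefly, cells in 96-well plates were exposed to five compound concentrations for 48 h, and endpoints were estimated by linear interpolation. The concentration for 50% growth inhibition is given as GI50. Definition used: TGI = concentration required for complete inhibition of growth.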

How the values were obtained:
Assay in all cases: growth of human tumour cells (NCI), 48 h
[1] = system: OVCAR-3 ovarian
[2] = system: HS 578T breast
[3] = system: NCI-H23 lung
[4] = system: T-47D breast
[5] = system: U251 CNS
[6] = system: NCI-H226 lung
[7] = system: M14 melanoma
[8] = system: SK-OV-3 ovarian
[9] = system: CCRF-CEM leukemia
[10] = system: OVCAR-5 ovarian

Row | SMILES | GI50 [1] | TGI [1] | GI50 [2] | TGI [2] [µM] | GI50 [3] | TGI [3] [µM] | GI50 [4] [µM] | TGI [4] [µM] | GI50 [5] | TGI [5] [µM] | GI50 [6] | TGI [6] [µM] | GI50 [7] | TGI [7] [µM] | GI50 [8] | TGI [8] [µM] | GI50 [9] | TGI [9] [µM] | GI50 [10] [µM] | TGI [10] [µM]
1 | COc1ccc2oc(-c3ccc(Cl)cc3)c(N3CCN(C)CC3)c2c1 | 1.95 µM | 4.37 µM | 1.71 µM | 3.86 | 2.88 µM | 8.99 | 2.32 | 6.78 | 1.64 µM | 3.14 | 3.16 µM | 14.5 | 1.95 µM | 4.26 | 2.17 µM | 4.99 | 1.71 µM | 4.06 | 1.95 | 4.34
2 | OCCCNC(=S)Nc1ccc(-c2nc3ccccc3s2)cc1 | 15 µM | 59.8 µM | 33 µM | > 100 | 24.3 µM | 60.8 | 16.9 | > 100 | 29.8 µM | > 100 | 18.5 µM | 49.6 | 23.3 µM | 49 | 63.7 µM | > 100 | 16.9 µM | > 100 | 20.6 | 58.3
3 | Cn1cc(-c2nc(-c3cn(C)c4ncccc34)cs2)c2cc(F)ccc21 | 0.379 µM | 2.24 µM | 5.1 µM | > 100 | 2.76 µM | > 100 | 0.648 | 23.2 | 1.55 µM | > 100 | 2.6 µM | > 100 | 0.777 µM | 12.4 | 2.4 µM | 21.2 | 2.41 µM | > 100 | 3.54 | > 100
4 | Cc1ccc(S(=O)(=O)C2=C3C(=C(c4ccccc4)c4ccccc43)CN(S(=O)(=O)c3ccc(C)cc3)C2)cc1 | 4.34 µM | 18.8 µM | 2.57 µM | 39.9 | 3.36 µM | 23.7 | 2.91 | 31.5 | 3.01 µM | 12.7 | 2.57 µM | 7.85 | 5.63 µM | 34.4 | > 100 µM | > 100 | 0.446 µM | > 100 | 25.4 | > 100
5 | NNc1nc(-c2ccccn2)nc2sc3c(c12)CCCCCC3 | 5.31 µM | 93.7 µM | 11 µM | > 100 | 9 µM | > 100 | 5.01 | > 100 | 4.5 µM | 49.6 | 10.3 µM | 89.1 | 5.46 µM | 46.8 | 30.9 µM | > 100 | 4.42 µM | > 100 | 8.61 | > 100
6 | O=C(O)c1cn(C2CC2)c2cc(N3CCN(C(=O)Nc4nc(-c5ccc(Cl)cc5)cs4)CC3)c(F)cc2c1=O | 2.38 µM | 34.6 µM | 1.91 µM | 66.1 | 2.08 µM | 39.5 | 1.65 | > 100 | 1.38 µM | 16.1 | 3.23 µM | 87.7 | 2.86 µM | > 100 | 2.35 µM | 8.12 | 1.22 µM | > 100 | 3.4 | > 100
7 | Cc1cccc2c(=O)c3c(sc12)c(NCCN)nc1ccccc13 | 0.888 µM | 1.79 µM | 1.5 µM | 4.78 | 0.87 µM | 1.96 | 0.685 | 1.6 | 0.84 µM | 1.59 | 0.904 µM | 2.33 | 0.808 µM | 1.55 | 3.17 µM | 9.9 | 0.878 µM | 1.83 | 0.834 | 1.6
8 | COc1ccc(OC)c(/C=C/c2cnnc3ccccc23)c1 |  | > 10 µM |  | 7.76 |  | > 10 |  | > 10 |  | > 10 |  | > 10 |  | > 10 |  | > 10 |  | > 10 |  | > 10
9 | COc1cc([C@@H]2c3cc4c(cc3[C@H](O)[C@H]3COC(=O)[C@@H]23)OCO4)cc(OC)c1OC | 0.303 µM and 0.159 µM | 1.53 µM and 0.371 µM | 0.298 µM and 0.293 µM | > 5.83 | 0.78 µM and 0.239 µM | > 100 | 0.405 | 4.64 | 0.46 µM and 0.382 µM | > 100 | 0.754 µM and 0.602 µM | > 100 | 0.355 µM and 0.135 µM | > 100 | 0.529 µM and 0.301 µM |  | 0.374 µM and 0.302 µM | > 100 | 0.721 | > 100
10 | COc1ccc2c(c1)N(CCC1CCCCN1C)c1ccccc1S2 (centres undefined) |  | 31.4 µM |  | 26.5 |  | 35.2 |  | 26.3 |  | 23.8 |  | 47.8 |  | 10.9 |  | 31 |  | 28.9 |  | 31.2
11 | O=C1/C(=c2\c3ccccc3n3c(=O)c4ccccc4nc23)Nc2ccccc21 |  | > 100 µM |  | > 85.7 |  | > 100 |  | > 100 |  | > 100 |  | > 100 |  | > 100 |  | > 100 |  | > 100 |  | > 100
